Measurements taken from patent US20230331674A1 (priority 2020, published 2023).
“And” between values parts separate entries of the source, which are not always exact repeats. Equal entries are not always repeated.

Legend:
Format in all cases: in vivo, dog
[1] = test system: dogs with canine cognitive dysfunction; test: Cognitive tests (food searching test FST and problem solving test PST) in dogs with cognitive dysfunction; parameters: Problem solving test scores (sum of FST and PST test), individual patient: scale not given here; details: for Problem solving score (sum of FST and PST), group mean: treated dogs; for Problem solving test scores (sum of FST and PST test), individual patient: treated group, one line per patient 1-7, Hydrochloride
Description: (§1) The study design was following the guidelines of the European Directive 2010/63/EU. Before starting the experimental therapy with their pets, each owner was required to sign an informed consent form. According to The Administration of the Republic of Slovenian for Food Safety, Veterinary and Plant Protection, no ethical permission was needed as the study was performed on clinical patients with the owners' consents. In total, seventeen dogs showing signs of cognitive dysfunction were included in the study. […] Upon enrollment, dogs were physically and neurologically examined, blood and urine analysis were performed. Additionally, a questionnaire based on a modified CADES scale score and two clinical tests (FST and problem PST) for assessing their cognitive function were performed. Dogs were randomly allocated to one of the following two groups: Control group (n=7) without treatment and the treatment group (n=10). Questionnaire and cognitive tests were performed every 2 months on all the dogs included in the study.
FST and PST were performed on each dog included in the study. The design of these tests was based on previously published tests for canine cognitive dysfunction (González-Martinez A. et al. Vet. J. 2013, 198, 176-181). The cognitive tests were evaluated by the same veterinarian. Dogs were tested in the morning after at least 10 hours of the fasting period.
This test was based on testing the dog's ability to find hidden food. The dog was seated in the middle of the room while being on the leash. […] While maintaining visual contact with the dog and still communicating with the dog, showing the food, the veterinarian than moved backward and placed the food in the corner of the room. The veterinarian than stared at the food and pointed to it with his hand for 2-3 s to increase the dog's visual processing. The owner was then asked to leave the room with the dog and wait outside for 15 s. After returning to the room, the dog was placed into the center of the room unleashed and allowed to freely explore the room for 1 minute. No verbal or other clues were allowed. The procedure was repeated twice. […] The FST total score was the average of both runs.
In this test, the ability of the dog to obtain the food by manipulating an object was assessed. […] After that, the food was placed on the floor in front of the dog and covered with a transparent plastic box that had been turned upside down. The dog was given 2 minutes to find a way to remove the box and get the food. […]
Results are presented as mean+SD. […] CADES score and results from behavioral tests were analyzed by repeated measures ANOVA with treatment as the independent variable and clinical test (before the treatment, 3 months, and 6 months after the treatment) as within factor. […]

[2] = test system: dogs with canine cognitive dysfunction; test: CADES score questionnaire in dogs with cognitive dysfunction; details: for Average CADES score: treated dogs
Text: Thirty-one dogs older than 10 years were screened for the study. Of these, 14 were excluded from the study because of different abnormal findings observed during the initial examination, including 3 dogs with brain tumor confirmed with the computed tomography (CT); 2 dogs with markedly elevated alanine aminotransferase (ALT) and serum alkaline phosphatase (ALP); 3 dogs with renal disease; 3 dogs with marked hearing and visual deficit; 2 dogs with both renal disease and moderately elevated ALT and ALP and 1 dog with eclampsia.
After the owner's consent, dogs were subjected to physical and neurological examination including body weight and body condition score, blood results for complete blood count (CBC), clinical chemistry, urinanalysis, the canine dementia scale (CADES) questionnaire, and two clinical cognitive tests [food searching test (FST) and problem solving test (PST)]. After these thorough examinations, the decision was made whether the dogs were included in the study. Dogs with systemic illnesses that could interfere with their cognitive function were excluded from the study.
Only dogs aged 10 years or older were included in the study. […] Dogs were not treated with any other medications for cognitive impairment. However, dogs that were included in the control group were allowed to be feed with the commercial therapeutic diet for cognitive decline, if they were on it at least 8 weeks before entering the study and if they maintained the same dietary protocol for the duration of the study. Dogs in the treatment group that were on a diet meant to treat cognitive decline were required to be off the diet for at least 30 days before enrollment and during the duration of the study.
as §1
Owners were observing their dog's health status daily during the duration of the study. In case of any serious or abnormal observations, they had to contact the participating veterinarian. Physical and excessive neurological examinations (behavior and consciousness, cranial nerves, gait and posture, postural reactions, spinal reflexes) were carried out by the veterinarian and included an assessment of all body systems. A full spectrum of neurobehavioral symptoms including apathy, anxiety, staring blankly, confusion or aimless walking, vocalization during the night, aggression, signs of compulsive and stereotyped behavior, etc. were obtained by questioning the pet owners. Dogs were monitored during examinations. Their responses to familiar and unfamiliar people and objects were observed. Exams were performed at the beginning of the study and every two weeks for the first two months if dogs were included in the treatment group. Thereafter, exams were performed every two months for the duration of the study (at least for 6 months). The control group was examined only every 2 months until the end of the study (for at least 6 months).
Changes in behavior of all dogs were evaluated by the same veterinarian. […]

[3] = test system: dogs with canine cognitive dysfunction; test: Side effects during treatment of dogs with cognitive dysfunction
Description: as §1
Owners were observing their dog's health status daily during the duration of the study. In case of any serious or abnormal observations, they had to contact the participating veterinarian. […] Dogs were monitored during examinations. […]

[4] = treated group, after three months

COCCN(CC1CCCN(Cc2ccccc2)C1)S(=O)(=O)c1ccc2ccccc2c1.Cl (racemic) [(±)-N-((1-Benzylpiperidin-3-Yl)Methyl)-N-(2-Methoxyethyl)Naphthalene-2-Sulfonamide Hydrochloride]
Problem solving score (sum of FST and PST), group mean ([1]; after six months): 2.7+/−1.0
Problem solving score (sum of FST and PST), group mean ([1]; after three months, baseline 5.3+/−1.4, untreated 7.6+/−1): 3.1+/−1.1
Problem solving test scores (sum of FST and PST test), individual patient ([1]; after six months): 2 (4×) and 3 and 4 (2×)
Problem solving test scores (sum of FST and PST test), individual patient ([1]; after three months): 4 (4×) and 2 (3×)
Observed change in cognitive abilities ([2]; all treated dogs, six-month study): improved memory, cognitive functions, and learning abilities
Average CADES score ([2]; after six months, untreated (2 remaining dogs) 80.5): 12.6+/−3.0
Average CADES score ([2]; after three months, baseline 39+/−16.4, untreated 64.0+/−12.8): 17.1+/−10.6
Cognitive state according to CADES ([2]; treated group, after six months): all dogs showed moderate cognitive impairment with low CADES score
Dogs showing moderate cognitive impairment (two affected domains) [2, 4]: 85.7%
Dogs showing severe cognitive impairment (three affected domains) [2, 4]: 14.3%
Survival ([2]; treated group, six-month study, 5 of 7 untreated dogs euthanized): all dogs included stayed alive throughout the study
Side effects ([3]; dogs with moderate cognitive impairment, 6 months of treatment): without any noticeable side effects
Side effects ([3]; dogs with severe cognitive impairment (3 dogs), treatment stopped): signs of gastrointestinal problems with vomiting and diarrhea
